These results are taken from a melting point compilation (Tetko et al.; mined from patent text by program, amines drawn as free bases though some values may be those of a salt).

As a reminder, the melting point is the temperature, or range, at which the solid turns liquid.

`COc1ccc(OC(Cc2ccc(OCCNC(=O)c3ccc(-c4ccccn4)cc3)cc2)C(=O)O)cc1` (stereo not drawn) yielded a melting point of 67.5 to 70 °C. In the case of `CCOC(=O)c1cccc(-c2ccnc(OCCc3ccc(OC)c(OC)c3)n2)c1` it was 94 to 95 °C. Regarding `CC(=O)N[C@H](COC(F)F)C(=O)NCc1ccc(F)cc1`, the melting point was 163 °C.

In turn, `COCCC(=O)N(Cc1ccc(OC(F)(F)F)cc1)c1cc(Cl)cc(-c2nnn[nH]2)c1` showed a melting point of 146 to 151 °C. Consider `Cc1ccc2ncn([C@H](C)[C@](O)(Cn3cncn3)c3ccc(F)cc3F)c(=O)c2c1`, for which the melting point fell in the range of 189 to 190 °C. As for `NC(c1ccco1)P(O)O` (stereo not drawn), the melting point is 221 °C. In the case of `CCCCc1nc2sccc2c(=O)n1CCC` it was 70 to 72 °C.

Molecule `CCCCCc1c(C(C)C)nc(C(C)C)c(CO)c1-c1ccc(F)cc1` returned a melting point of 100 to 101 °C. On to `O=C(NCc1c[nH]c(=S)n1[C@H]1CCc2c(F)cc(F)cc2C1)c1ccccn1`, for which the melting point lay within 216 to 217 °C. As for `COCC(=O)NS(=O)(=O)c1cccc(-c2cccc(-c3cc(-c4ccc(C(F)(F)F)cc4)cc(C)n3)n2)c1`, the figure is 188 °C; as for `O=C1Nc2ccc(S(=O)(=O)N3CCCC3)cc2C1=O`, 200 to 201 °C. As for `CC(C)C(NS(=O)(=O)c1ccc(Cl)cc1)c1ccc(CCCC(=O)O)cc1` (single isomer, unassigned; (+)), the figure is 117 to 119 °C; as for `CCCCOc1c(CNC(=O)OC(C)(C)C)n(CC(C)C)c(=O)c2ccc(-c3ccco3)cc12`, 157 to 158 °C. With `CC(C=O)c1ccc2cc(OCc3ccc4ccccc4n3)ccc2c1` (stereo not drawn), the melting point was in the range of 113 to 115 °C.

For `CC(C)(C)OC(=O)NC(NC(=O)OC(C)(C)C)Nc1ccc(CCc2csc(NC(=O)c3ccccc3)n2)cc1`, the melting point is 143 to 144 °C. In the case of `Cc1cc(C)c(C(=O)c2ccccc2)c(OCC(O)CNC(C)C)c1C` (stereo not drawn) it was 121 to 123 °C; in that of `O=C(CN1CCC(Cc2ccccc2)CC1)Nc1ccc2c(c1)OCC(=O)N2`, 184 to 188 °C; in that of `Nc1ccncc1Nc1ccc2cn[nH]c2c1`, 214 to 216 °C. Take `COC(=O)CCCc1cc2cc(Cl)ccc2n1S(=O)(=O)c1ccc2c(c1)OCCN2C`: the melting point was 139 to 140 °C. As for `Cc1cc(-c2ccc(-c3ccco3)cc2)n(-c2ccc(S(C)(=O)=O)cc2)c1`, the figure is 193 to 194 °C. Molecule `C=CCn1c(=O)c(OC)nn(-c2cccc(NC(C)=O)c2)c1=O` had a melting point of 72 to 73 °C. On to `Cc1cc(Cc2cc(C(F)(F)F)cc(C(F)(F)F)c2)ccc1NC(=O)c1cccc(Cl)c1C(=O)N[C@@H](C)CS(C)(=O)=O`, for which the melting point lay in the range of 155 to 158 °C. `C=CCN(CC)C(=O)n1cnc(S(=O)CC)n1` (stereo not drawn): the melting point fell in the range of 59 to 61 °C.

Regarding `O=C1CCCc2ccn(-c3ccccc3)c21`, the melting point is 66 to 68 °C. Turning to `CCCc1cccc(-c2nc(C)cc(Cl)n2)n1`, the melting point was 77.1 °C. The molecule `Cc1cc(NCc2ccc(Oc3ccc4ncc([N+](=O)[O-])n4n3)c(OCC3CC3)c2)nc(C)n1` had a melting point of 113 to 118 °C.

With `COCCOCc1nc2cnc3ccc(OCc4ccccc4)cc3c2n1C`, the melting point is 128 to 132 °C. Consider `Cc1ccnc(NC(N)=S)c1`, for which the melting point fell in the range of 210 to 212 °C. In the case of `C[C@@H]1CNCCN1C(=O)OC(C)(C)C` it was 33 to 36 °C; in that of `CCCCC(=O)Nc1ccc(Br)c(-n2nc(CC)n(Cc3ccc(-c4ccccc4S(N)(=O)=O)cc3F)c2=O)c1`, 223 to 225 °C. In the case of `CN(C(=O)c1cc2ccccc2s1)c1ccc(N2CCC(O)CC2)c(C#N)c1` it was 211 to 212 °C.

Regarding `CC1(c2ccc(F)cc2)OC(C=Cc2ccc(C#N)cc2)=CC1=O` (stereo not drawn), the melting point fell in the range of 140 to 142 °C. Molecule `O=C(O)CC(NC(=O)C(Cl)Cl)C(=O)O` (stereo not drawn) displayed a melting point of 165 to 168 °C. In the case of `CC(C)(C)OC(=O)NC(=NS(=O)(=O)C(F)(F)F)NC(=O)OCc1ccccc1` it was 95 to 97 °C; in that of `Nc1ccc(CCOCCCCCCNCC(O)c2cc(Cl)c(N)c(Cl)c2)cc1` (stereo not drawn), 71 to 73 °C. The molecule `COc1ccc(C(=O)C(C)(C)Br)c(Cl)c1Cl` yielded a melting point of 72 to 73 °C. `Oc1ccc(C2OCN3C2=CCC3CCc2ccccc2)cc1` (stereo not drawn): the melting point stood at 176 °C.

The molecule `O=[N+]([O-])c1cc(Cn2ccnc2)ccc1NCc1cccnc1` came in with a melting point of 171 °C. Consider `Cc1cc(-c2ccc(S(C)(=O)=O)cc2)n(-c2ccc(F)cc2)c1C`, for which the melting point is 159 to 162 °C.

Molecule `Cc1cccc2c1C(=O)N1CCC[C@H]1c1c(C(=O)OC(C)(C)C)ncn1-2` displayed a melting point of 192 to 194 °C. As for `CCCO[C@@H]1C[C@@H](C(=O)NC)N(S(=O)(=O)c2ccc(Cl)c(COc3cccc4c(-n5ccnc5)cc(C)nc34)c2Cl)C1`, the figure is 84 °C. Take `Nc1cc(-c2nnc(CCc3cccc(C(F)(F)F)c3)o2)ccn1`: the melting point fell in the range of 161 to 163 °C. The molecule `Cc1cc(C2(c3ccc(OC(F)F)cc3)N=C(N)N(C)C2=O)ccc1F` (stereo not drawn) yielded a melting point of 70 °C.

`O=C(Nc1ccccn1)C(CC1CCCC1)c1ccc([N+](=O)[O-])cc1` (stereo not drawn) returned a melting point of 110 to 115 °C.

`Cc1c(-c2cc(N(C)C)ncn2)ssc1=S` registered a melting point of 137 °C.

`Cc1noc(NS(=O)(=O)c2ccc(C(F)(F)F)cc2)c1Br` yielded a melting point of 155 to 158 °C. In the case of `O=c1n(CCCF)nnn1-c1cc([N+](=O)[O-])c(Cl)cc1F` it was 80 to 81 °C; in that of `Cn1ccc(=O)c(O)c1Cc1cccnc1`, 209 to 212 °C; in that of `COc1ccc(CNc2ncnc3c2ncn3C2OC(CO)C(O)C2O)cc1` (stereo not drawn), 148 °C. As for `COC(=O)c1cc([N+](=O)[O-])ccc1F`, the figure is 52 to 53 °C. As for `Nc1cc(C(=O)c2ccc(F)c(N)c2)ccc1F`, the figure is 131 to 132 °C; as for `COc1ccc(-c2ccc3c(C(=O)N(C)C)cccc3c2)cc1`, 113 to 116 °C. Consider `CON=C(C#N)C(N)=O`, for which the melting point fell in the range of 170 to 172 °C.

Turning to `CC(=O)Nc1cccc2c1CCNC2=O`, the melting point fell in the range of 244 to 246 °C.

On to `CN1CCN(c2cc(=O)c3ccc4ccccc4c3o2)CC1`, for which the melting point fell in the range of 184 to 185 °C.

`O=C(c1cccs1)c1cnn2c(-c3ccc(F)c(Br)c3)ccnc12` returned a melting point of 74 to 76 °C. In turn, `CCOC(=O)c1cn2c3c(cccc3c1=O)CC2(C)C` yielded a melting point of 117 to 119 °C.

As for `COCCNc1c([N+](=O)[O-])cc(C)cc1[N+](=O)[O-]`, the melting point is 75 °C.

With `Cn1cc(C2=C(c3cn(C)c4cc(CO)ccc34)C(=O)NC2=O)c2ccccc21`, the melting point was 245 to 246 °C.

`O=[N+]([O-])c1cc(C(F)(F)F)cc2sc(=S)sc12` had a melting point of 163 to 165 °C.

`O=C(O)CCNC(=O)[C@H](Cc1ccc(-c2ccccc2)cc1)NCP(=O)(Oc1ccccc1)Oc1ccccc1` came in with a melting point of 102 °C. Take `O=C1c2cc3c(cc2CCC1(Br)Br)OCC3`: the melting point was in the range of 138 to 142 °C. Turning to `CCCOc1ccc(S(=O)(=O)N2CCNCC2)cc1-c1nc2c(CCC)nn(C)c2c(=O)[nH]1`, the melting point was 185 to 186 °C.
